The values that follow come from ChEMBL document CHEMBL1914426, “Phospshoinositide 3-kinase (PI3K)/mammalian target of rapamycin (mTOR) dual inhibitors: discovery and structure-activity relationships of a series of quinoline and quinoxaline derivatives” (J Med Chem, 2011).

A value given as a limit tells only on which side of the number the result lay.

Data set [1] is described as follows: Oral bioavailability in Sprague-Dawley rat at 1 mg/kg. Format: ADME, organism-based. The settings on record: in vivo.
Data set [2] in a line: AUC in Sprague-Dawley rat at 1 mg/kg, po. It counts as ADME, organism-based. Also on record: dose 1 mg/kg, route oral. The settings on record: plasma.
The species named for data set [3] is Rattus norvegicus. The settings on record: in vivo, iv, 1 mg/kg.
Description: Clearance in Sprague-Dawley rat at 1 mg/kg, iv
Data set [4] is filed under the species Rattus norvegicus. The settings on record: in vivo, iv, 1 mg/kg. The source holds these as a separate data set.
Description: Volume of distribution at steady-state in Sprague-Dawley rat at 1 mg/kg, iv
Data set [5] is filed under the species Rattus norvegicus. The settings on record: in vivo, iv, 1 mg/kg. The source holds these as a separate data set.
Description: Mean residence time in Sprague-Dawley rat at 1 mg/kg, iv
The species entered for data set [6] is Rattus norvegicus. The settings on record: in vivo, iv, 1 mg/kg. The source holds these as a separate data set.
Description: Hepatic blood flow in Sprague-Dawley rat 1 mg/kg, iv
The nature of data set [7]: in vitro. The settings on record: human, liver microsomes. In general terms: Liver microsomes are vesicles of endoplasmic reticulum, rich in cytochrome P450 enzymes.
Description: Clearance in human liver microsomes assessed as compound remaining at 1 uM after 30 mins
The nature of data set [8]: in vitro. The settings on record: rat, liver microsomes.
Description: Clearance in rat liver microsomes assessed as compound remaining at 1 uM after 30 mins

As usually defined, the bioavailability is the share of a dose that reaches the circulation, judged against a reference dose that is usually intravenous. The AUC is concentration integrated over time. Read a low AUC as less exposure. A word on the Vdss: it is the apparent volume that relates the amount in the body to the concentration in plasma or blood. Read a low Vdss as confinement near the circulation. A word on the MRT: it is a mean duration of stay, worked out from the concentration-time curve. A word on the microsomal CLint: it is a measure of how fast metabolising enzymes remove a compound, apart from limits set by blood flow. In data set [1], `O=S(=O)(Nc1cc(-c2ccc3ncc(NCCN4CCCCC4)nc3c2)cnc1Cl)c1ccc(F)cc1` registered a bioavailability of 16%. For the same compound, the AUC in data set [2] amounted to 271 ng·h/mL. This compound yielded a CL in the data set listed under Rattus norvegicus [3] of 9.83 mL/min/kg. Moreover, the distribution volume (Vdss) in the data set listed under Rattus norvegicus [4] was determined as 0.19 L/kg. The compound further gave a mean residence time (MRT) in the data set filed under Rattus norvegicus [5] of 2.1 h. Further, the QH in the data set listed under Rattus norvegicus [6] worked out at 0.6%. Besides, the microsomal CLint at 0.5 h, 1 µM in the data set “in vitro [7]” is 25 µL/min/mg; in “in vitro [8]”, less than 14 µL/min/mg.
